Measurements: patent EP2326714B1, “METHOD FOR THE PRODUCTION OF A FEED ADDITIVE FOR THE OXYGEN-INDEPENDENT, ENZYMATIC DECOMPOSITION OF MYCOTOXINS, FEED ADDITIVE, AND USE THEREOF” (Erber Aktiengesellschaft, priority 2008, dated 2010)

Assays:
[1] = target: T1, Fumonisin-Carboxylesterase FumD, Sequenz ID-Nr. 9 (fumD Gen Sequenz ID-Nr. 8), Sphingopyxis sp. Stamm DSM 16254, his-getaggt, in Pichia pastoris exprimiert (Sphingopyxis macrogoltabida, UniProt D2D3B6); assay: Enzyme kinetics of fumonisin carboxylesterase (Michaelis-Menten, HPLC-MS/MS); assay type: biochemical; details: substrate FB1; enzyme 0,33 ng/ml; Tris-Cl pH 8,0; 30 °C
T1 construct: His tag; made in house; host or cells: Pichia pastoris (secreted, purified from the culture supernatant)
T1 sequence (D2D3B6 whole entry): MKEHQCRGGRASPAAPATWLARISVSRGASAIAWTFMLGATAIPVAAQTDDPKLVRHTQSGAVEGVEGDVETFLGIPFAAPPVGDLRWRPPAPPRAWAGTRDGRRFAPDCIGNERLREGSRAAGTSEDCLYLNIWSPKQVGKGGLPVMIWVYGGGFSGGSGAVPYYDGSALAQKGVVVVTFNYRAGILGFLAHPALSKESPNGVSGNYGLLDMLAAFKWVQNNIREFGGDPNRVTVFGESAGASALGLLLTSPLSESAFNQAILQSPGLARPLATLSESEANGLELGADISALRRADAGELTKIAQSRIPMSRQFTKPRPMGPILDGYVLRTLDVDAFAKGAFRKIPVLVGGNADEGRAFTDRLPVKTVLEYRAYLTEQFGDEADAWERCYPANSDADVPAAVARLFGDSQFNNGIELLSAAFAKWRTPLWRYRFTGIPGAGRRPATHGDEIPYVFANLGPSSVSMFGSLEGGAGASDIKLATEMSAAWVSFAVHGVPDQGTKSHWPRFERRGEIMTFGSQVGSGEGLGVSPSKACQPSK
Protocol: (§1) Das fumD Gen (Sequenz ID-Nr. 8), welches eine Fumonisin-Carboxylesterase codiert, wurde kloniert und in Pichia pastoris unter Verwendung von Standardverfahren exprimiert. Das his-getaggte Enzym wurde rückgewonnen und aus der überstehenden Lösung der Kultur durch Affinitätschromatographie gereinigt. Die Enzymkonzentration wurde bestimmt und die enzymkinetischen Parameter wurden mit sieben unterschiedlichen Substratkonzentrationen im Bereich zwischen 50 µg bis 25 mg FB1 pro Liter und einer Enzymkonzentration von 0,33 ng/ml bestimmt. Die Reaktionen wurden in 20 mM Tris-Cl (pH 8,0) Puffer mit 0,1 mg/ml Rinderserumalbumin gepuffert und bei 30 °C inkubiert. Proben wurden nach 0, 30, 60 120 und 240 Minuten Inkubation genommen und durch HPLC-MS/MS analysiert. Fumonisin B1 (FB1) und hydrolysiertes Fumonisin B1 wurden quantifiziert basierend auf einer Kalibrierung mit den gereinigten Referenzsubstanzen und einem vollständig ^13C markierten, internen FB1 Standard.
(§2) Fig. 2 zeigt die Michaelis-Menten-Kurve für die Transformation von Fumonisin B1 (FB1) durch Fumonisin-Carboxylesterase FumD, welche bei einer Enzymkonzentration von 0,33 ng/ml in Tris-Cl-Puffer (pH 8,0) bestimmt wurde, wobei anfängliche Enzymgeschwindigkeiten gegen die Substratkonzentration aufgetragen wurden. Die Michaelis-Menten-Kurve zeigt einen Abfall bei höheren Substratkonzentrationen, da die Enzymgeschwindigkeit basierend auf dem Produkt, d.h. hydrolysierter FB1-Bildung berechnet wurde. Da hydrolysiertes FB1 aus FB1 in einer zweistufigen Reaktion über partiell hydrolysiertes FB1 mit lediglich einer Tricarballylsäure-Seitenkette, die zurückbehalten wurde, und einer Seitenkette ausgebildet wird, die abgespalten wurde, war die Endproduktbildung bei hohen Substratkonzentrationen verzögert. Die Michaelis-Menten-Konstante KM wurde als 0,90 µmol/l berechnet, was 650 ppb äquivalent ist, und die Umwandlungszahl war 900 pro Sekunde.

Absetzferkel = assay: Feeding trial with piglets (fumonisin B1 contaminated feed, positive control); assay type: in vivo, Ferkel (ÖHYB); details: 4 - 5,5 ppm Fumonisin B1 in feed, no enzyme
From the text: Der Versuch wurde in einem Versuchsstall mit 12 Buchten für jeweils 10 Tiere durchgeführt. Der Stall war ausgestattet mit Spaltenboden, Schalentränkern und einem computergesteuerten Fütterungssystem. Die Automaten waren entlang der Buchtenwände angeordnet. Das Stallklima wurde täglich automatisch aufgezeichnet und die Temperatur nach den Standardempfehlungen zur Ferkelaufzucht eingestellt.
120 gemischt-geschlechtliche Absetzferkel (Alter: ca. 4 Wochen, durchschnittliches Einstellgewicht 8,21 kg) wurden für diesen Versuch eingesetzt. Jedes Ferkel wurde mit einer Ohrmarke versehen und einzeln gewogen. Die 120 Ferkel wurden auf 12 Buchten zufällig verteilt. Alle Ferkel entstammten dem österreichischen Zuchtprogramm ÖHYB (= (Edelschwein x Landrasse) x Pietrain).
Direkt nach dem Absetzen wurden die Ferkel für 2 Tage mit einem Starterfutter gefüttert, nach dieser Eingewöhnungsphase erfolgte die Umstellung auf das Versuchsfutter. Die Fütterung erfolgte 2-phasig: Absetzphase Tag 1 - 14, Aufzuchtphase Tag 15 - 42. Das Versuchsfutter wurde buchtenindividuell über die Spotmix-Fütterungsanlage gemischt und je nach Anzahl der Ferkel, Gewichtsentwicklung und Futterverzehr zweimal täglich trocken zugeteilt. Wasser stand zur Aufnahme ad libitum zur Verfügung. Die 12 Buchten wurden in vier verschiedene Applikationsgruppen zu je drei Wiederholungen geteilt und erhielten die folgenden Einmischungen ins oben beschriebene Futter: […]

[2] = system: CCCC[C@@H](C)[C@@H](OC(=O)C[C@@H](CC(=O)O)C(=O)O)[C@H](C[C@@H](C)C[C@H](O)CCCC[C@@H](O)C[C@H](O)[C@H](C)N)OC(=O)C[C@@H](CC(=O)O)C(=O)O; assay: Enzyme kinetics of fumonisin carboxylesterase (Michaelis-Menten, HPLC-MS/MS); assay type: biochemical, Sphingopyxis sp.
Protocol: as §1, §2

Compound | Umwandlungszahl [1] [pro Sekunde] | Ausfälle (Absetzferkel; 30 piglets, 42 days) | Endgewicht (Durchschnitt, kg) (Absetzferkel; 30 piglets, 42 days, negative control 26,82) | respiratorische Probleme (Absetzferkel; all other groups appeared healthy) | Km ([2]; other: same KM expressed in ppb, pH 8.0, 30.0 °C) [ppb] | Km ([2]; other: substrate FB1, 50 µg to 25 mg per litre, enzyme 0,33 ng/ml, 20 mM Tris-Cl pH 8,0, 0,1 mg/ml BSA, 30 °C, rate based on formation of hydrolysed FB1)
CCCC[C@@H](C)[C@@H](OC(=O)C[C@@H](CC(=O)O)C(=O)O)[C@H](C[C@@H](C)C[C@H](O)CCCC[C@@H](O)C[C@H](O)[C@H](C)N)OC(=O)C[C@@H](CC(=O)O)C(=O)O [Fumonisin B1] | 900 | 1 | 24,77 kg | bei fast der Hälfte der Tiere respiratorische Probleme beobachtet | – | –
Fumonisin-Carboxylesterase FumD, Sequenz ID-Nr. 9 (fumD Gen Sequenz ID-Nr. 8), Sphingopyxis sp. Stamm DSM 16254, his-getaggt, in Pichia pastoris exprimiert (Sphingopyxis macrogoltabida) | – | – | – | – | 650 | 0,90 µmol/l
